{"source": "patent US8030360B2", "about": "“Anti-wrinkle agent” (Kemphys Ltd., priority 2004, dated 2011)", "key": {"fibroblast cells": {"system": "fibroblast cells", "assay": "Acceleration of EGF-dependent growth of fibroblast cells", "type": "cell-based", "conditions": "low serum level", "experimental": "The growth of fibroblast cells, being suspended under a low serum level, is dependent on growth factors, and the growth will start by the addition of EGF. The acceleration effects of RA and Am80 on the EGF-dependent growth were evaluated. RA gave the maximum effect (40% promotion) at 10^−6 M, and Am80 gave the maximum effect (30% promotion) at 10^−8 M. The acceleration effect of Am80 (10%) was also observed at 10^−10 Ml."}, "[1]": {"conditions": "reported in WO96/30009; cited from earlier work"}, "horny layer": {"system": "horny layer", "assay": "Horny layer turnover test (dansylchloride fluorescence)", "type": "in vivo, guinea pig", "conditions": "50 ppm, 10 μl/1 cm diameter, once a day (FIG. 3)", "experimental": "Actions on turnover of horny layer were evaluated by using guinea pigs. Hartley albino male guinea pigs of approximately 750 g in weight, whose hair was removed using depilatory wax three days prior to the experiment, were applied occlusively with 5% Vaseline ointment of dansylchloride for 24 hours using a patch test Finn Chamber, and then the skin of the guinea pigs were wiped to remove the ointment. A portable fluorometer was used for irradiation with ultraviolet rays having maximum at around 338 nm, and the fluorescent intensity of the dansylchloride was measured. Simultaneously, fluorescent intensity of an area where dansylchloride was not applied (blank value) was measured in the same manner. After the measurement of the fluorescent intensities, 10 μl/1 cm diameter of RA and Am80 at 50 ppm concentration were applied once a day. During the measurement, skin irritancy was also determined according to the criteria indicated in Example 1. […] Cumulative skin irritancy was simultaneously evaluated according to the criteria in Example 1, and the results were obtained as shown in FIG. 4."}, "guinea pig skin [2]": {"system": "guinea pig skin", "assay": "Cumulative skin irritancy test of a retinoid on guinea pig skin", "type": "in vivo", "experimental": "(§1) Histological tests were conducted to study the irritancy of a retinoid on guinea pig skin and correlation between an irritancy threshold and a retinoid action threshold. Each of male guinea pigs of approximately in a weight of 600 g was applied once every day with 1, 5, 10, 50, or 100 ppm of retinoic acid (RA) or Am80 (4-[(5,6,7,8-tetrahydro-5,5,8,8-tetramethyl-2-naphthalenyl)carbamoyl]benzoic acid) as an ethanol solution on the dorsal skin (5 days a week). As a control, only the solvent (ethanol) was applied. The skin responses were evaluated according to the following 5-step criteria, and average values were calculated for each concentration of the drugs by using results obtained from three of the guinea pigs. • 0: No skin response was observed. • 1: Slight erythema was observed. • 2: Obvious erythema was observed. • 3: Strong erythema or slight edema/crust was observed. • 4: Obvious edema/crust, or more severe changes was observed.\n(§2) Further, concentration dependencies of cumulative skin irritancy of RA and Am80 for the same application period were compared."}, "guinea pig skin [3]": {"system": "guinea pig skin", "assay": "Histological findings of guinea pig skin at the end of the application period", "type": "in vivo", "experimental": "as §1, §2"}, "[4]": {"system": "Normal human keratinocyte", "assay": "Human keratinocyte growth (amount of DNA as index)", "type": "cell-based", "conditions": "amount of DNA as index of HK growth", "experimental": "(§3) Normal human keratinocyte obtained from human chest skin (HK, Kurabo) was cultured, and the cells were added with RA or Am80 (0.01% in dimethyl sulfoxide) on the second day. The cells on the second to 13th day after the addition of the agents were used as samples. By using the amount of DNA as an index of HK growth, and by using compositional ratio (K1/K16) of differentiated keratin (k1; 68 kD) and proliferating keratin (K16; 48 kD) in one-dimension SDS-PAGE as an index of differentiation, differentiation suppression rate was determined as a value wherein the ratio of the indexes of each sample and control applied only with a solvent was subtracted from 1. […] IC50 was 10^−6 to 10^−7 M for RA, and 10^−9 M for Am80."}, "skin grooves": {"system": "skin grooves", "assay": "Planarization action on skin surface formation (skin groove), silicon resin replicas and image analysis", "type": "in vivo, hairless mice", "conditions": "0.01% in ethanol", "experimental": "Changes which appear on skin grooves after applications of RA and Am80 (each at a concentration of 0.01% in ethanol) were studied by using hairless mice (Skh-h4l, 16 weeks old, female, 5 mice per group). The applications were conducted once a day, 5 days a week, and for 30 days. As a control, only ethanol was applied. On the next day of the day of last application, replicas of skin surfaces were created by using a silicon resin, and various parameters that represent features of the shape of the skin surface were determined by using an apparatus for image analysis. […] Further, the decrease in KSD correlated to epidermal thickening."}, "[5]": {"system": "Normal human keratinocyte", "assay": "Human keratinocyte differentiation (K1/K16 keratin ratio, SDS-PAGE)", "type": "cell-based", "experimental": "as §3"}}, "data": [{"smiles": "CC1(C)CCC(C)(C)c2cc(NC(=O)c3ccc(C(=O)O)cc3)ccc21", "note": "[Am80, 4-[(5,6,7,8-tetrahydro-5,5,8,8-tetramethyl-2-naphthalenyl)carbamoyl]benzoic acid]", "values": [{"measurement": "Emax at 0.01 µM", "setting": "fibroblast cells; Fibroblast, at 10^−8 M, read-out: maximum effect on EGF-dependent growth (promotion)", "result": 30, "unit": "%"}, {"measurement": "acceleration effect on EGF-dependent growth", "setting": "fibroblast cells; at 10^−10 Ml", "result": 10, "unit": "%"}, {"measurement": "effect on dermatopathy caused by rays of sunlight", "setting": "[1]", "result": "ineffective"}, {"measurement": "action on horny cell layer turnover", "setting": "horny layer", "result": "almost no effect"}, {"measurement": "skin responses", "setting": "guinea pig skin [2]; 10 ppm or less, during this period (FIG. 2)", "result": "no skin responses"}, {"measurement": "skin response compared with retinoic acid", "setting": "guinea pig skin [2]; RA and Am80 at the same concentration (FIG. 1)", "result": "much weaker skin response than retinoic acid and induces extremely slow skin response"}, {"measurement": "skin thickening and inflammatory changes compared with RA", "setting": "guinea pig skin [3]", "result": "more slight skin thickening and inflammatory changes even when applied at 10 times higher concentration"}, {"measurement": "IC50", "setting": "[4]; Homo sapiens, Keratinocyte, read-out: IC50 of cell growth suppression", "result": 1, "unit": "nM"}, {"measurement": "epidermal thickening", "setting": "skin grooves; for 30 days (FIG. 6)", "result": "obvious changes"}, {"measurement": "planarization changes of skin surface on replicas", "setting": "skin grooves; once a day, 5 days a week, for 30 days", "result": "The same action was observed"}, {"measurement": "differentiation suppression rates as compared to that by RA", "setting": "[5]; Am80 versus RA", "result": "1.3 to 1.7", "unit": "times"}, {"measurement": "cell differentiation suppression action compared with RA", "setting": "[5]; K1/K16 ratio as index of differentiation", "result": "stronger than that of RA"}, {"measurement": "concentration at which cell differentiation suppression action is also observed", "setting": "[5]; as low as", "result": "10^−8 to 10^−10 M"}]}, {"smiles": "CC1=C(/C=C/C(C)=C/C=C/C(C)=C/C(=O)O)C(C)(C)CCC1", "note": "[RA, retinoic acid, reference compound]", "values": [{"measurement": "Emax at 1 µM", "setting": "fibroblast cells; Fibroblast, at 10^−6 M, read-out: maximum effect on EGF-dependent growth (promotion)", "result": 40, "unit": "%"}, {"measurement": "irritancy threshold (cumulative skin irritancy)", "setting": "guinea pig skin [2]; same application period, FIG. 2 (9th day of application)", "result": "less than 5 ppm"}, {"measurement": "IC50 of cell growth suppression", "setting": "[4]", "result": "10^−6 to 10^−7 M"}]}]}
